Molecules are shown by their SMILES. Activity calls are given as the source filed them. The calls are words filed in the database; no cut-off is given here.

The target of series [1] is T1, ATP-dependent translocase ABCB1 (Homo sapiens, UniProt P08183). Description: Inhibition of MDR1 (unknown origin)-mediated rhodamine 123 uptake expressed in mouse L5178Y cells assessed as fluorescence activity ratio at 4 uM by flow cytometry relative to untreated control. The format is cell-based. On the technique in general: In flow cytometry, cells or beads pass a laser one at a time.
T1 sequence (P08183 whole entry): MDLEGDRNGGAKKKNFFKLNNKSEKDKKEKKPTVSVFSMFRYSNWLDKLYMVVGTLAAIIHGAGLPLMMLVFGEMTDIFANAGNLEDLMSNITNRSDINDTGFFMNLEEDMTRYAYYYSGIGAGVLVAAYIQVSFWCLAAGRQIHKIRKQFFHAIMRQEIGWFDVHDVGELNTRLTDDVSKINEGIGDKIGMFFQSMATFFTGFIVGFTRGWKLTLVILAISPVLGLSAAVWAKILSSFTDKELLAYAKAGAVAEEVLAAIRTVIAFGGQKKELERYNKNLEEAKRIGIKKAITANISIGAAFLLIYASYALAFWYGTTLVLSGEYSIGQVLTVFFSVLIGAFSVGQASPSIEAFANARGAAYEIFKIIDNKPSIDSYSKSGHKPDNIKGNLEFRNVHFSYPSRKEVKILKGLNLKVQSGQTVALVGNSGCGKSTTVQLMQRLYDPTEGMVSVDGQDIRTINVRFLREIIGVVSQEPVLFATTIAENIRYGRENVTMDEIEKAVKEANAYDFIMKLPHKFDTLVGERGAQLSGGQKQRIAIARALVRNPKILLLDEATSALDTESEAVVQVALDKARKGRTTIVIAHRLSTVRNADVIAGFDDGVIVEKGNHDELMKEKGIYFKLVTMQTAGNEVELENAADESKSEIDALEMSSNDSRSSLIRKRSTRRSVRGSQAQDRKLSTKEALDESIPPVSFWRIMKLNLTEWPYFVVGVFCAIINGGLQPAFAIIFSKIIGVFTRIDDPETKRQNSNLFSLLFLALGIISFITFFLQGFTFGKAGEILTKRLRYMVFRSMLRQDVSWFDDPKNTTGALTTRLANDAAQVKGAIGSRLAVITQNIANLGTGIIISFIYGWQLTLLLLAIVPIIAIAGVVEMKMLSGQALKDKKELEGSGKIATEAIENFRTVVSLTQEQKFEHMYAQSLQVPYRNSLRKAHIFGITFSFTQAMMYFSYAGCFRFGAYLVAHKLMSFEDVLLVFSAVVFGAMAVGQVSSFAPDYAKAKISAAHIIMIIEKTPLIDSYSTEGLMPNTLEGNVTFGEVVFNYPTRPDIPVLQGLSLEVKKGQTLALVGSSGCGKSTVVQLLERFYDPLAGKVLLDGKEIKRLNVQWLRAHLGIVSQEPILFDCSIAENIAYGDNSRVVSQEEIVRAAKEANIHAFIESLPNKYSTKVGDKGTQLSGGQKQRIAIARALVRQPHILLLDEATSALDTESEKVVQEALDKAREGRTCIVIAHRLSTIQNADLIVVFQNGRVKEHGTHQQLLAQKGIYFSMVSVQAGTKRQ

The next series concerns L5178Y. Description: Antiproliferative activity against Mus musculus (mouse) L5178Y cells transfected with mdr1 (unknown origin) after 72 hr by MTT assay. The format is functional, cell-based. (Tetrazolium dyes change colour on reduction, which living cells bring about.)
The target in series [2] is T1, ATP-dependent translocase ABCB1. In words: Inhibition of MDR1 (unknown origin)-mediated rhodamine 123 uptake expressed in mouse L5178Y cells assessed as fluorescence activity ratio at 21.99 uM by flow cytometry relative to untreated control. It is filed as cell-based.
The target in series [3] is Voltage-gated L-type calcium channel (Rattus norvegicus, UniProt P22002+Q02485+P27732). Description: Inhibition of L-type calcium channel in Rattus norvegicus (rat) heart artery myocytes. It is filed as tissue-based.

For `CC1=C(C(=O)c2ccccc2)C(c2c3ccccc3cc3ccccc23)NC(=O)N1` (stereo unspecified), the RLU in series [1] is 4.57. Same read-out and setting: in the case of `CC1=C(C(=O)c2ccccc2)C(c2ccccc2Cl)NC(=S)N1` (stereo unspecified) it was 1.17; in that of `CC1=C(C(=O)c2ccccc2)C(c2cccc(O)c2)NC(=O)N1` (stereo unspecified), 0.97; in that of `COc1ccc(C2NC(S)=NC(C)=C2C(=O)c2ccccc2)cc1OC` (stereo unspecified), 1.28. On the same count and under the same terms, with `CC1=C(C(=O)c2ccccc2)C(c2ccccc2[N+](=O)[O-])NC(=S)N1` (stereo unspecified) the figure was 0.88; with `CC1=C(C(=O)c2ccccc2)C(c2cccc(Br)c2)NC(=S)N1` (stereo unspecified), 1.11. As to `CC1=C(C(=O)c2ccccc2)C(c2c[nH]c3ccccc23)NC(=O)N1` (stereo unspecified), the outcome in the series with L5178Y was Active. For the same compound, in series [1], the RLU was 78.56. For `COc1ccc(OC)c(C2NC(=O)NC(C)=C2C(=O)c2ccccc2)c1` (stereo unspecified), the outcome in the series on L5178Y was Active. Moreover, the RLU in series [1] worked out at 36.85. As for `CC1=C(C(=O)c2ccccc2)C(c2ccccc2Cl)NC(=O)N1` (stereo unspecified), in series [1], the RLU is recorded as 0.98.

In the case of `COc1ccc(CCN(C)CCCC(C#N)(c2ccc(OC)c(OC)c2)C(C)C)cc1OC` (stereo unspecified) [VERAPAMIL], in series [2], the RLU was found to be 4.26. On to `CC1=C(C(=O)c2ccccc2)C(c2cccc(Oc3ccccc3)c2)NC(=S)N1` (stereo unspecified), for which the outcome in the series on L5178Y was Active. Further, the RLU in series [1] amounted to 3.68.

In the case of `CC1=C(C(=O)c2ccccc2)C(c2cccc(Oc3ccccc3)c2)NC(=O)N1` (stereo unspecified), the RLU in series [1] was 1.23. The same measure, in the same setting: in the case of `CC1=C(C(=O)c2ccccc2)C(c2ccc(Cl)cc2)NC(=S)N1` (stereo unspecified) it was 1.03. As for `CC1=C(C(=O)c2ccccc2)C(c2ccc(C#N)cc2)NC(=O)N1` (stereo unspecified), the RLU in series [1] was found to be 2.11. As for `CC1=C(C(=O)c2ccccc2)C(c2ccccc2O)NC(=S)N1` (stereo unspecified), in series [1], the RLU came out at 1.03. As for `CC1=C(C(=O)c2ccccc2)C(c2ccccc2[N+](=O)[O-])NC(=O)N1` (stereo unspecified), in series [1], the RLU is 0.94. On to `CC1=C(C(=O)c2ccccc2)C(c2cccc(Cl)c2)NC(=O)N1` (stereo unspecified), for which, in series [1], the RLU is recorded as 0.89. For the compound `COc1cc(C2NC(=O)NC(C)=C2C(=O)c2ccccc2)cc(OC)c1OC` (stereo unspecified), the RLU in series [1] was 0.96.

For `CC1=C(C(=O)c2ccccc2)C(c2cccc(Br)c2)NC(=O)N1` (stereo unspecified), the RLU in series [1] stood at 1.15.

On to `CC1=C(C(=O)c2ccccc2)C(/C=C/c2ccccc2)NC(=S)N1` (stereo unspecified), for which, in series [1], the RLU stood at 1.28. On the same count and under the same terms, in the case of `CC1=C(C(=O)c2ccccc2)C(c2cc(Br)c(O)c(Br)c2)NC(=O)N1` (stereo unspecified) it was 0.82; in that of `CC1=C(C(=O)c2ccccc2)C(/C=C/c2ccccc2)NC(=O)N1` (stereo unspecified), 0.99. With `CC1=C(C(=O)c2ccccc2)C(c2cccc(Cl)c2)NC(=S)N1` (stereo unspecified), the RLU in series [1] is 1.21. The same measure, in the same setting: with `COc1cc(OC)cc(C2NC(=O)NC(C)=C2C(=O)c2ccccc2)c1` (stereo unspecified) the figure was 1.15. Still for that read-out and setting: in the case of `CC1=C(C(=O)c2ccccc2)C(c2ccc(Cl)cc2)NC(=O)N1` (stereo unspecified) it was 0.96. Turning to `CC1=C(C(=O)c2ccccc2)C(c2ccccc2)NC(=S)N1` (stereo unspecified), the RLU in series [1] was 0.97. `COc1cc(C2NC(=S)NC(C)=C2C(=O)c2ccccc2)cc(OC)c1OC` (stereo unspecified): the RLU in series [1] is recorded as 0.93. As to `CC1=C(C(=O)c2ccccc2)C(c2cccc3ccccc23)NC(=O)N1` (stereo unspecified), the outcome in the series with L5178Y was Active. For the same compound, in series [1], the RLU is given as 29.87.

As to `CC1=C(C(=O)c2ccccc2)C(c2ccco2)NC(=O)N1` (stereo unspecified), the RLU in series [1] is 1.26. On the same count and under the same terms, with `CC1=C(C(=O)c2ccccc2)C(c2ccccc2)NC(=O)N1` (stereo unspecified) the figure was 1.09. As usually defined, the IC50 is the concentration that inhibits the measured activity by half. Turning to `CC1=C(C(=O)c2ccccc2)C(c2cccc(Oc3ccccc3)c2)C(C(=O)c2ccccc2)=C(C)N1`, the IC50 in series [3] stood at 1.12 µM. Consider `CC1=C(C(=O)c2ccccc2)C(c2cccc([N+](=O)[O-])c2)NC(=O)N1` (stereo unspecified), for which, in series [1], the RLU was determined as 1.39.

Values taken from ChEMBL document CHEMBL3044800, “Synthesis, characterization and anticancer activity of 3-aza-analogues of DP-7” (Med Chem Res, 2012).
